Measured values published in patent US20250230155A1 (Vanderbilt University, priority 2021, published 2025).
Like-named read-outs stand apart in the source and are kept apart here.

Biological target: T1, human mAChR M4 (Homo sapiens, UniProt P08173)
T1 construct: expressed in transfected cells
T1 sequence (P08173 1-479): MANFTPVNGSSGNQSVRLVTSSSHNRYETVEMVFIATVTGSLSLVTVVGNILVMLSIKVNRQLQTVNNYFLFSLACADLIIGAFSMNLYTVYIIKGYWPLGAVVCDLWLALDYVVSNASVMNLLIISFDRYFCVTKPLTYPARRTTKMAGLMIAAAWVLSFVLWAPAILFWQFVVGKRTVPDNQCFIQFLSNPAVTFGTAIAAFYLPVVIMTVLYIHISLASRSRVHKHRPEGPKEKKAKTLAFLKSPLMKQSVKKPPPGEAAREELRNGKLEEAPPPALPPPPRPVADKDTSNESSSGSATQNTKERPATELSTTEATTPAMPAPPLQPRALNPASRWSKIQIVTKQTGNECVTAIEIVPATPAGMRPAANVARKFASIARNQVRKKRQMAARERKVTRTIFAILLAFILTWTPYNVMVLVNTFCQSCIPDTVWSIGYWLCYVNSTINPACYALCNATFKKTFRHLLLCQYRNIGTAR
Assay: mAChR M4 cell-based functional assay (calcium mobilization, CHO-K1 hM4-Gqi5 cells)
Conditions: for Emax at 30 µM: CHO-K1, % ACh maximum at 30 μM, human M4; for EC50: increase in the EC20 acetylcholine response, CHO-K1 hM4-Gqi5 cells; for Emax: CHO-K1
Summary of the method: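 Fluorescent calcium read-out (Fluo-4 AM, FDSS, 1 Hz) in hM4-Gqi5 CHO-K1 cells, 11-point 1:3 compound series. Agonism scored on compound addition, PAM activity as increase of the 144 s EC20 acetylcholine response, antagonism as decrease of the 230 s EC80 response; four-parameter logistic fits give EC50 and Emax.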

[1] = positive allosteric modulator activity, read-out: Human M4 EC50
[2] = Human M4 EC50, positive allosteric modulator activity

Row | SMILES | Emax at 30 µM | EC50 [1] | Emax | EC50 [2]
1 | Cc1cc(C(=O)NCc2cnc3ccccc3c2)cnc1N1CCc2ncc(C(F)(F)F)cc2C1 [Example 446, 5-methyl-N-(quinolin-3-ylmethyl)-6-(3-(trifluoromethyl)-7,8-dihydro-1,6-naphthyridin-6(5H)-yl)nicotinamide] | 87% | 1140 nM |  | 
2 | Cc1cc(C(=O)N2CCCC2)nnc1N1CCc2ncc(N3CCO[C@H](C)C3)cc2C1 [Example 536, (R)-(5-methyl-6-(3-(2-methylmorpholino)-7,8-dihydro-1,6-naphthyridin-6(5H)-yl)pyridazin-3-yl)(pyrrolidin-1-yl)methanone] | 86% | 1150 nM |  | 
3 | Cc1cc(C(=O)NCc2ccc(S(C)(=O)=O)cc2)cnc1N1CCc2ncccc2C1 [compound 143, 6-(7,8-dihydro-5H-1,6-naphthyridin-6-yl)-5-methyl-N-[(4-methylsulfonylphenyl)methyl] pyridine-3-carboxamide] | 53% | 5830 nM |  | 
4 | Cc1ccc(F)c(Oc2cnc3c(c2)CN(c2ncc(C#N)cc2C)CC3)c1 [Example 368, 6-(3-(2-fluoro-5-methylphenoxy)-7,8-dihydro-1,6-naphthyridin-6(5H)-yl)-5-methylnicotinonitrile] | 94% | 1700 nM |  | 
5 | Cc1cc(C(=O)N2CC(F)C2)nnc1N1CCc2ncc(N3CCCn4nccc43)cc2C1 [Example 551, (6-(3-(6,7-dihydropyrazolo[1,5-a]pyrimidin-4(5H)-yl)-7,8-dihydro-1,6-naphthyridin-6(5H)-yl)-5-methylpyridazin-3-yl)(3-fluoroazetidin-1-yl)methanone] | 111% | 44 nM |  | 
6 | Cc1cnc2c(c1)CN(c1ncc(C#N)cc1C)CC2 [compound 179, 5-methyl-6-(3-methyl-7,8-dihydro-5H-1,6-naphthyridin-6-yl)pyridine-3-carbonitrile] |  |  | 98% | 100 nM
7 | Cc1ccc(F)c(Nc2cnc3c(c2)CN(c2nnc(C#N)c(C)c2C)CC3)c1 [Example 37] | 57% | 438 nM |  | 
8 | Cc1cc(C(=O)N2CC3(COC3)C2)nnc1N1CCc2ncc(N3CCCn4nccc43)cc2C1 [Example 542, (6-(3-(6,7-dihydropyrazolo[1,5-a]pyrimidin-4(5H)-yl)-7,8-dihydro-1,6-naphthyridin-6(5H)-yl)-5-methylpyridazin-3-yl)(2-oxa-6-azaspiro[3.3]heptan-6-yl)methanone] | 113% | 64 nM |  | 
9 | Cc1cc(C(=O)NCc2ncc(F)cn2)cnc1N1CCc2ncccc2C1 [compound 147, 6-(7,8-dihydro-5H-1,6-naphthyridin-6-yl)-N-[(5-fluoropyrimidin-2-yl)methyl]-5-methyl-pyridine-3-carboxamide] | 52% | ≥ 10000 nM |  | 
10 | Cc1cc(C(=O)NCc2ccc(N3CCOCC3)nc2)cnc1N1CCc2ncc(-c3cn(C)nc3C)cc2C1 [Example 480, 6-(3-(1,3-dimethyl-1H-pyrazol-4-yl)-7,8-dihydro-1,6-naphthyridin-6(5H)-yl)-5-methyl-N-((6-morpholinopyridin-3-yl)methyl)nicotinamide] | 76% | 1390 nM |  | 
11 | Clc1nc2c(c(N3CCc4ncc(C5CC5)cc4C3)n1)COC2 [compound 287, 2-chloro-4-(3-cyclopropyl-7,8-dihydro-1,6-naphthyridin-6(5H)-yl)-5,7-dihydrofuro[3,4-d]pyrimidine] |  | 584 nM |  | 
12 | Cc1cc(C(=O)NCc2cccc3cccnc23)cnc1N1CCc2ncccc2C1 [compound 156, 6-(7,8-dihydro-5H-1,6-naphthyridin-6-yl)-5-methyl-N-(8-quinolylmethyl)pyridine-3-carboxamide] | 84% | 1150 nM |  | 
13 | Cc1nc(Cl)c(C)c(N2CCc3ncc(-c4cn(C)nc4C)cc3C2)n1 [compound 192, 6-(6-chloro-2,5-dimethyl-pyrimidin-4-yl)-3-(1,3-dimethylpyrazol-4-yl)-7,8-dihydro-5H-1,6-naphthyridine] | 90% | 169 nM |  | 
14 | Cc1cc(C(=O)NCc2cncs2)nnc1N1CCc2ncc(CC(F)(F)F)cc2C1 [Example 590, 5-methyl-N-(thiazol-5-ylmethyl)-6-(3-(2,2,2-trifluoroethyl)-7,8-dihydro-1,6-naphthyridin-6(5H)-yl)pyridazine-3-carboxamide] | 94% | 41 nM |  | 
15 | Cc1cc(C(=O)N(C)C)nnc1N1CCc2ncc(N3CCCn4nccc43)cc2C1 [Example 556, 6-(3-(6,7-dihydropyrazolo[1,5-a]pyrimidin-4(5H)-yl)-7,8-dihydro-1,6-naphthyridin-6(5H)-yl)-N,N,5-trimethylpyridazine-3-carboxamide] | 87% | 1460 nM |  | 
16 | Cc1cc(C#N)cnc1N1CCc2ncc(N3CCO[C@@H](c4ccccc4)C3)cc2C1 [Example 378, (S)-5-methyl-6-(3-(2-phenylmorpholino)-7,8-dihydro-1,6-naphthyridin-6(5H)-yl)nicotinonitrile] | 62% | 4310 nM |  | 
17 | Cc1cc(C)n(-c2cnc3c(c2)CN(c2ncc(C#N)cc2C)CC3)n1 [Example 346, 6-(3-(3,5-dimethyl-1H-pyrazol-1-yl)-7,8-dihydro-1,6-naphthyridin-6(5H)-yl)-5-methylnicotinonitrile] | 88% | 1300 nM |  | 
18 | Cc1cc(C(=O)NCc2ccc3nn[nH]c3c2)cnc1N1CCc2ncccc2C1 [compound 150, N-(3H-benzotriazol-5-ylmethyl)-6-(7,8-dihydro-5H-1,6-naphthyridin-6-yl)-5-methyl-pyridine-3-carboxamide] | 61% | 4680 nM |  | 
19 | Cc1nc(C)c(C)c(N2CCc3ncc(Nc4ccnn4C)cc3C2)n1 [compound 241, N-(1-methyl-1H-pyrazol-5-yl)-6-(2,5,6-trimethylpyrimidin-4-yl)-5,6,7,8-tetrahydro-1,6-naphthyridin-3-amine] | 81% | 111 nM |  | 
20 | Cc1c(C#N)nnc(N2CCc3ncc(-c4ccncc4)cc3C2)c1C [compound 74, 4,5-dimethyl-6-[3-(4-pyridyl)-7,8-dihydro-5H-1,6-naphthyridin-6-yl]pyridazine-3-carbonitrile] | 87% | 368 nM |  | 
21 | Cc1cc(C#N)cnc1N1CCc2ncc(C3CC3)cc2C1 [Example 330, 6-(3-cyclopropyl-7,8-dihydro-1,6-naphthyridin-6(5H)-yl)-5-methylnicotinonitrile] |  |  | 85% | 71 nM
22 | Cc1nc(C(F)(F)F)nc(N2CCc3ncc(N4CCCn5nccc54)cc3C2)c1C [compound 258, 3-(6,7-dihydropyrazolo[1,5-a]pyrimidin-4(5H)-yl)-6-(5,6-dimethyl-2-(trifluoromethyl)pyrimidin-4-yl)-5,6,7,8-tetrahydro-1,6-naphthyridine] | 79% | 69 nM |  | 
23 | Cc1c(C#N)nnc(N2CCc3ncc(Nc4ccccc4N(C)C)cc3C2)c1C [compound 40, 6-[3-[2-(dimethylamino)anilino]-7,8-dihydro-5H-1,6-naphthyridin-6-yl]-4,5-dimethyl-pyridazine-3-carbonitrile] | 51% | 910 nM |  | 
24 | FC(F)(F)c1cnc2c(c1)CN(c1nc(Cl)nc3c1CCC3)CC2 [compound 259, 6-(2-chloro-6,7-dihydro-5H-cyclopenta[d]pyrimidin-4-yl)-3-(trifluoromethyl)-5,6,7,8-tetrahydro-1,6-naphthyridine] | 91% | 217 nM |  | 
